Measurements published in patent publication US10159254B2, “Weed control methods” (Syngenta Participations AG, priority 2013, dated 2018).

Tests used:
[1] = test system: SYHT0H2 soybeans; experiment: Greenhouse: water-soluble iron compounds safening mesotrione, maximum injury; conditions: in vivo
Experimental: An experiment is conducted to look at the safening effect of a variety of water-soluble iron-containing compounds. SYHT0H2 soybean plants are grown in small pots filled with a greenhouse potting mix. […] In all cases, mesotrione was applied at 420 g ai/ha and all treatments contained liquid ammonium sulphate at 2.5% v/v and NIS at 0.25% v/v. The application rates of iron-containing compounds indicated are iron equivalent rates. […] Percent injury levels were assessed 6, 9, and 16 days after treatment. Data presented are maximum injury occurring from any of the treatments at any time during the experiment.

[2] = test system: Velvetleaf (Abutilon theophrasti); experiment: Greenhouse weed control: HPPD inhibitors with or without Sequestrene 138Fe, velvetleaf; type: in vivo; conditions: percent velvetleaf control 19 DAT
Experimental: Effect of Tank Mix Applications of HPPD Inhibitors and Sequestrene® 138Fe on Velvetleaf Control. Percent Control Assessed 19 DAT
(§1) A greenhouse experiment is conducted to determine the effect of chelated iron on weed control in the greenhouse. Velvetleaf (Abutilon theophrasti) and common waterhemp (Amaranthus rudis) plants are grown in 4×4-inch pots filled with a greenhouse potting mix. When the plants reached the 2 to 3 inch height (2 to 3 leaf stage), they are sprayed with a reduced rate of an HPPD inhibitor alone or in a tank mix combination with Sequestrene 138Fe at 140 g/ha (equivalent to 8.4 g iron/hectare) or 280 g/ha (equivalent to 16.8 g iron/hectare). […] Observations on percent control are recorded 12, 19, and 25 days after treatment.

[3] = test system: common waterhemp (Amaranthus rudis); experiment: Greenhouse weed control: HPPD inhibitors with or without Sequestrene 138Fe, common waterhemp; type: in vivo; conditions: common waterhemp control 17 DAT
Experimental: as §1
Effect of Tank Mix Applications of Various HPPD Inhibitors and Sequestrene 138Fe on Common Waterhemp Control. Injury Assessed 17 DAT
An experiment is performed to look at the effect of applying iron chelates on control of Common Waterhemp using HPPD-inhibiting herbicides. Experiment design is analogous to that outlined in Experiment 3 above.

[4] = test system: HPPD-tolerant soybean event SYHT04R; experiment: Glasshouse: post-emergence HPPD herbicide damage with or without Sequestrene 138Fe, 7 DAA; type: in vivo; conditions: isoxaflutole, tembotrione
Experimental: (§2) Safening of Various HPPD-inhibiting Herbicides in HPPD-tolerant Soybean Events SYHT04R and SYHT0H2
(§3) An experiment is performed to determine whether the addition of chelating iron to the spray formulation can mitigate foliar bleaching injury from the HPPD herbicides mesotrione, bicyclopyrone, tembotrione, isoxaflutole, topramezone and pyrasulfatole when applied post-emergence to the HPPD-tolerant soybean events SYHT04R and SYHT0H2.
(§4) Soybean plants are grown in a glasshouse (24° C. day, 18° C. night; 65% relative humidity; 16 hour photoperiod). Two replicates are utilised in respect of SYHT0H2 (growth stage V1-V3) and three replicates are utilised in respect of SYHT04R (growth stage V1 to V3). Spray applications are applied post-emergence at […]. Herbicide damage was assessed 7 DAA (Days After Application).

[5] = test system: HPPD-tolerant soybean event SYHT0H2; experiment: as above; type: in vivo; conditions: isoxaflutole, tembotrione
Experimental: as §2, §3, §4

[6] = test system: SYHT0H2 soybeans; experiment: Greenhouse: tank-mix and sequential Sequestrene 138Fe, HPPD-inhibitor maximum injury; type: in vivo, soybean
Experimental: Effect of Tank-mix and Sequential Application of Sequestrene® 138 on Mesotrione (Applied as Callisto®)—Maximum Injury in SYHT0H2 Soybeans
An experiment is conducted in the greenhouse to determine the effect of chelated iron (Sequestrene 138Fe containing 6% iron) on HPPD-inhibitor injury to SYHT0H2 soybeans. Soybeans are grown in pots filled with a greenhouse potting mix. When the plants reach the V2-V3 stage, they are sprayed with an HPPD-inhibitor herbicide applied alone (Treatment 1), or in tank mixture with Sequestrene 138Fe (Treatment 2), or sequentially with Sequestrene 138Fe applied 1 day before the HPPD inhibitor (Treatment 3). Sequestrene 138Fe is applied at 2240 g/ha (equivalent to 134 g iron/ha). All treatments are applied with liquid ammonium sulfate @ 2.5% v/v and a non-ionic surfactant (NIS) @ 0.25% v/v in 150 L/ha water. Observations on percent injury are recorded 5, 11, or 22 days after treatment. Data presented are maximum injury observed during the trial.

[7] = test system: SYHT0H2 soybeans; experiment: Greenhouse: Sequestrene 138Fe rate series, percent injury from HPPD-inhibitors at 7 DAT; type: in vivo, soybean; conditions: mesotrione 420, bicyclopyrone 200, tembotrione 368, topramezone 72 g/ha
Experimental: Effect of Sequestrene® 138Fe on Percent Injury from Various HPPD-inhibitors on SYHT0H2 Soybeans. Injury Assessed at Seven Days after Treatment (7 DAT)
SYHT0H2 soybeans are grown in 4×4-inch pots filled with a greenhouse potting mix. When the plants reach the V2-V3 growth stage, they are treated with an HPPD inhibitor applied alone or in a tank mixture with Sequestrene 138Fe at various rates ranging from 140 g product/ha (equivalent to 8.4 g iron/ha) to 2240 g product/ha (equivalent to 134 g iron/ha).

[8] = test system: SYHT04R soybeans; experiment: Greenhouse: Sequestrene 138Fe safening of HPPD-inhibitors, injury 6 days after treatment; type: in vivo, soybean; conditions: 6 days after treatment (maximum injury), mesotrione 420, bicyclopyrone 200, isoxaflutole 280 g/ha
Experimental: Effect of Sequestrene® 138Fe on Various HPPD-inhibitors in SYHT04R Soybeans. Maximum Injury Assessed 6 Days after Treatment
A greenhouse experiment is conducted to determine if Sequestrene® 138Fe was effective in safening various other HPPD herbicide-tolerant soybean events, such as SYHT04R.
SYHT04R soybean plants are grown in 4×4-inch pots filled with a greenhouse potting mix. When the plants reached the V2-V3 growth stage, they are sprayed with an HPPD inhibitor alone or in combination with Sequestrene® 138Fe at 1120 g/ha (equivalent to 67.2 g iron/ha). […] Observations on percent injury are recorded at 6 and 20 days after treatment. Data presented is from the 6 days after treatment rating representing the maximum injury observed during the experiment.

[9] = test system: SYHT04R soybean; experiment: Greenhouse: chelated Fe versus chelated Mn, bicyclopyrone maximum injury; type: in vivo; conditions: additive none, maximum injury of 5 and 9 days after treatment
Experimental: Effect of Chelated Fe and Chelated Mn on Safening SYHT04R Soybean from Bicyclopyrone Injury
A greenhouse experiment is conducted to determine if chelating agents containing nutrient elements other than Fe were also effective in safening HPPD herbicide-tolerant soybeans.
SYHT04R soybean plants are grown in 4×4-inch pots filled with a greenhouse potting mix. When the plants reached the V2-V3 growth stage, they are sprayed with an HPPD inhibitor alone or in combination with Sequestrene 138Fe or a solution containing 6% EDTA-chelated Mn. […] Observations on percent injury were recorded 5, and 9 days after treatment. Data presented are maximum injury observed during the experiment.

[10] = Sequestrene 138Fe 0 g/ha, g ai/ha: mesotrione 26, isoxaflutole 26, bicyclopyrone 50, tembotrione 46, pyrasulfatole 22, topramezone 18
[11] = Sequestrene 138Fe 140 g/ha tank mix, mesotrione 26, isoxaflutole 26 g ai/ha
[12] = Sequestrene 138Fe 280 g/ha tank mix, g ai/ha: bicyclopyrone 50, tembotrione 46, pyrasulfatole 22, topramezone 18
[13] = Sequestrene 138Fe 1000 g/ha, g ai/ha: mesotrione 200, bicyclopyrone, pyrasulfatole 100, topramazone 50
[14] = Sequestrene 138Fe 1000 g/ha, g ai/ha: mesotrione 800, bicyclopyrone, pyrasulfatole 400, topramazone 200
[15] = no Sequestrene 138Fe, g ai/ha: mesotrione 200, bicyclopyrone, pyrasulfatole 100, topramazone 50
[16] = no Sequestrene 138Fe, g ai/ha: mesotrione 800, bicyclopyrone, pyrasulfatole 400, topramazone 200
[17] = Sequestrene 138Fe 140 g/ha tank mix
[18] = Sequestrene 138Fe 280 g/ha tank mix
[19] = Sequestrene 138Fe 560 g/ha tank mix
[20] = Sequestrene 138Fe 1120 g/ha tank mix
[21] = Sequestrene 138Fe 2240 g/ha tank mix

Molecule	% Injury [2, 10] [%]	% Injury [3, 10] [%]	% Injury [2, 12] [%]	% Injury [3, 12] [%]	Herbicide damage SYHT04R [4, 13]	Herbicide damage SYHT04R [4, 14]	Herbicide damage SYHT04R [4, 15]	Herbicide damage SYHT04R [4, 16]	Herbicide damage SYHT0H2 [5, 13]	Herbicide damage SYHT0H2 [5, 14]	Herbicide damage SYHT0H2 [5, 15]	Herbicide damage SYHT0H2 [5, 16]	other results
O=S(=O)([O-])[O-].[Fe+2] [Ferrous Sulfate (Fe2SO4), iron (II) sulphate (ferrous sulphate)]													safening SYHT0H2 soybeans from mesotrione injury [1]: effective
CS(=O)(=O)c1cc(C(F)(F)F)ccc1C(=O)c1cnoc1C1CC1 [Isoxaflutole, isoxaflutole]	78	87											% Injury [2, 11]: 82%; % Injury [3, 11]: 88%
Cc1nn(C)c(O)c1C(=O)c1ccc(C(F)(F)F)cc1S(C)(=O)=O [Pyrasulfatole, pyrasulfotole]	85	98	80	77	0	2	4	12	10	18	10	4	
CS(=O)(=O)c1ccc(C(=O)C2C(=O)CCCC2=O)c(Cl)c1COCC(F)(F)F [Tembotrione, tembotrione]	98	99	99	99									% Maximum Injury ([6]; in vivo): 31%
Cc1c(C(=O)c2cnn(C)c2O)ccc(S(C)(=O)=O)c1C1=NOCC1 [Topramezone, topramezone]	96	100	93	99	2	3	5	17	5	0	8	23	% Injury ([7]; Sequestrene 138Fe 0 g/ha): 8%; % Injury [7, 17]: 0%; % Injury [7, 18]: 0%; % Injury [7, 19]: 0%; % Injury [7, 20]: 0%; % Injury [7, 21]: 0%
bicyclopyrone	100	90	100	96	5	30	15	42	3	25	13	40	% Maximum Injury ([6]; Sequestrene 138Fe 2240 g/ha applied 1 day before herbicide (Treatment 3, sequential), mesotrione 420, bicyclopyrone 200, tembotrione 368 g ai/ha): 12%; % Maximum Injury ([6]; herbicide alone (Treatment 1), mesotrione 420, bicyclopyrone 200, tembotrione 368 g ai/ha, maximum of 5, 11, 22 days after treatment): 25%; % Maximum Injury ([6]; tank mix with Sequestrene 138Fe 2240 g/ha (Treatment 2, simultaneous), mesotrione 420, bicyclopyrone 200, tembotrione 368 g ai/ha): 3%; % Injury ([7]; Sequestrene 138Fe 0 g/ha): 23%; % Injury [7, 17]: 12%; % Injury [7, 18]: 10%; % Injury [7, 19]: 1%; % Injury [7, 20]: 0%; % Injury [7, 21]: 0%; % Injury ([8]; Sequestrene 138Fe 0 g/ha): 29%; % Injury ([8]; Sequestrene 138Fe 1120 g/ha): 7%; % Injury [9]: 29%
iron DTPA [Sequestrene 330-Fe]													safening SYHT0H2 soybeans from mesotrione injury [1]: effective
